Source: EPA's ToxValDB 9.5 (doi:10.2903/j.efsa.2015.4194)
In brackets after ≈: the same amount, converted by molar mass.

Assays:
Apis mellifera = settings: acute, duration: 48 hours, mortality
Bibionidae = settings: chronic/long-term; duration: 28 days
Canidae = settings: oral, Dog Other
Colinus virginianus = settings: oral
Daphnia magna = settings: chronic/long-term; duration: 21 days; reproduction
Lepomis macrochirus = settings: acute; duration: 96 hours; mortality
Tagia sp. = settings: acute; duration: 14 days; mortality

Question: How did the LD50 (Apis mellifera; dermal) turn out when `CC1(c2ccc(Oc3ccccc3)cc2)OC(=O)N(Nc2ccccc2)C1=O` (centres undefined) [Famoxadone] was run?
Answer: > 25 µg/piece

Question: What about the LD50 (Apis mellifera; oral, unspecified) of the same compound?
Answer: > 63 µg/piece

Question: And the NOEC (Bibionidae)?
Answer: 0.01 mg/L

Question: What about the NOAEL (Canidae; chronic, duration: 1 years, ophthalmoscopic examination) of the same compound?
Answer: 1.2 mg/kg-day

Question: What about the NOAEL (Canidae; subchronic, duration: 90 days, clinical signs) of the same compound?
Answer: 10 mg/kg-day

Question: And the LD50 (Colinus virginianus; acute, mortality)?
Answer: > 2250 mg/kg-day

Question: And the NOEC (Colinus virginianus; short-term, diet)?
Answer: 5620 mg/kg-day

Question: What about the NOEC (Daphnia magna) of the same compound?
Answer: 0.0037 mg/L

Question: And the LC50 (Lepomis macrochirus)?
Answer: 0.013 µg/mL (≈ 0.0347 µM)

Question: What about the LC50 (Oncorhynchus mykiss; acute, duration: 96 hours, mortality) of the same compound?
Answer: 0.011 µg/mL (≈ 0.0294 µM)

Question: What about the NOEC (Oncorhynchus mykiss; chronic/long-term, duration: 90 days, growth) of the same compound?
Answer: 0.014 mg/L

Question: What about the LD50 (Rattus norvegicus; acute, mortality) of the same compound?
Answer: > 5000 mg/kg

Question: And the NOAEL (Rattus norvegicus; developmental, development)?
Answer: 11.3 mg/kg-day

Question: And the LC50 (Tagia sp.)?
Answer: 470 mg/kg
